Tests used:
Assay type in all cases: in vivo
Acyrthosiphon pisum = assay: Toxicity on larval growth (cumulative larval mortality on supplemented Ap3 medium), pea aphid
Description: (§1) b) Measurement of the toxicity of chicoric acid or caftaric acid on larval growth of the green peach aphid (Myzus persicae) and the pea aphid (Acyrthosiphon pisum)
(§2) The objective is to quantify the toxic effect of chicoric acid or caftaric acid on the aphid for the period of larval growth thereof, i.e. 8 to 10 days for Myzus persicae and Acyrthosiphon pisum at 19° C. The molecule is added at different concentrations to the Ap3 control nutrient medium. The dose “0” corresponds to Ap3 medium alone.
(§3) The medium (75 μl) is poured between two UV-sterilized Parafilm® stretched onto a cylindrical PVC support (h=1.5 cm, d=2 cm), under sterile conditions.
(§4) On the Day D0, 20 neonate larvae are deposited inside the cylinder, which is then turned over and applied to a square of Parafilm©. The dishes are placed in filtered light (16 hours day/8 hours night) and in a chamber at 19° C. The fixation percentage is recorded after 1 hour as a short-term phagostimulation indicator and to check that no anomaly occurred during aphid deposition. The larval mortality is recorded daily at the end of the day. […] On the day of the imaginal moult thereof, the aphids having reached the adult aptera stage are deposited successively on a precision balance (d=0.01 mg) and the cumulative weights are recorded for each concentration of each of the two molecules tested. The individual weights are calculated subsequently. […]

Myzus persicae [1] = assay: Toxicity on larval growth (cumulative larval mortality on supplemented Ap3 medium), green peach aphid; conditions: larval growth D1-D7
Description: as §1, §2, §3, §4

Myzus persicae [2] = assay: Analysis of repellent effect: choice test between control Ap3 medium and test medium, phagostimulation index; conditions: Myzus persicae larvae, doses 0 to 1 mM in Ap3 medium
Text: a) Analysis of repellent effect: the method used is that developed by Yvan Rahbe (Rahbé & Febvay (1993) Entomologia Experimentalis et Applicata 67: 149-160; Chen (1996) Thesis submitted to Institut National des Sciences Appliquées, Lyon, France: 158 p) within the scope of research on the chemical determinants of the resistance of plants to various species of aphids (Aphis gossypii, Acyrthosiphon pisum), and adapted to the green aphid Myzus persicae.
The objective is to evaluate the attractive or repellent nature of a candidate molecule, at different concentrations, either with respect to control base medium (dose “0”), or with respect to another substance. […]
The medium (35 μl) is poured between two Parafilm® membranes stretched onto an Eppendorf® cone. […] The following morning, the number of aphids fixed on each medium is then recorded. […] A phagostimulation index, representing the degree of appetence of the test medium for the aphid, is calculated as follows: […]

O=C(/C=C/c1ccc(O)c(O)c1)O[C@@H](C(=O)O)[C@@H](OC(=O)/C=C/c1ccc(O)c(O)c1)C(=O)O [chicoric acid, dicaffeyl tartaric acid]
dose from which a very significant toxic effect (p<0.001) is observed (Acyrthosiphon pisum; Acyrthosiphon pisum larval growth): ≥ 0.5 mM | mortality at 500 µM (Acyrthosiphon pisum; Acyrthosiphon pisum, read-out: larval mortality): > 80% | larval mortality (Myzus persicae [1]; from 0.125 mM in Ap3 medium): ~80% | larval mortality (Myzus persicae [1]; from 0.25 mM in Ap3 medium): 100% | dose from which a highly significant repellent effect is displayed (Myzus persicae [2]; 15 hours at 19° C.): ≥ 62.5 µM | repellent effect (result in words) (Myzus persicae [2]): significant repellent effect

From patent US20170006866A1, “PHYTOSANITARY COMPOSITION” (INSTITUT NATIONAL DE LA RECHERCHE AGRONOMIQUE-INRA, priority 2014, published 2017)
